{"source": "patent US12070465B2", "about": "“Compositions and methods for the prevention and treatment of hearing loss” (Ting Therapeutics LLC, priority 2020, dated 2024)", "key": {"[1]": {"system": "zebrafish neuromast hair cells", "experiment": "Zebrafish model for excitotoxicity (kainic acid induced hair cell death)", "type": "in vivo", "conditions": "for performance compared with Piperlongumine against kainic acid (KA) induced hair cell death: KA 300 μM 1 hour, then derivative 2 hours at 1 nM to 100 μM, better at at least one dose", "experimental": "5dpf Tg(Brn3c:mGFP) larvae were used for the experiments. Zebrafish were pretreated with kainic acid for one hour (300 μM) to mimic the excitotoxic damage induced by noise exposure, and then, post-treated with Piperlongumine-25 for 2 hours (al concentrations of 0.001 μM; 0.1 μM; 10 μM; and 100 μM). Control animal were treated with DMSO (−) or Piperlongumine-25 alone (+). Animals were then fixed and immunostained for GFP. Quantification was done by assessing three neuromasts in the same anatomic location of each animal (n=5). The data is plotted as mean+SD. Statistical testing was done with One-way ANOVA and Dunnett post-hoc test (P<0.0001 compared to KA).\nSubsequently, animals were transferred to E3 water for 5 hours and fixed in 4% paraformaldehyde (PFA) overnight. Neuromast HCs were immunolabeled with anti-otoferlin (HCS-1, DSHB) and anti-GFP (NB100-1614, Novus Biologicals). These two markers were used to detect and count neuromast HCs to reduce the chances of missing some of the HCs after the treatment since as it was previously noticed that incubation with the compounds can affect GFP expression more difficult to detect under a fluorescence microscope. Otic, middle, and opercular neuromasts were identified, and HCs at SO3 (supraorbital line neuromast) and O1-2 (Otic line neuromasts) were manually counted using a Zeiss AxioSkop 2 fluorescence microscope with a 40× oil objective. Control animals were treated with DMSO (−) or Neo or GM alone (+) Animals were then fixed and immunostained for GFP and otoferlin. Quantification was done by assessing three neuromasts in the same anatomic location of each animal (n=5). The data is plotted as mean+SD. Statistical testing was done with One-way ANOVA and Dunnett post-hoc test (*P<0.05, **P<0.01, ***P<0.001 compared to either Neo or GM, respectively). […] For the screening of piperlongumine derivatives for protection against noise-induced hearing loss we employed a zebrafish model that mimics excitotoxic damage. Five-day post-fertilization (dpf) Tg(brn3c:GFP) larvae were incubated with 300 μM of KA for 1 hour followed by piperlongumine-25 for 2 hours at 0.001 μM, 0.1 μM, 10 μM, and 100 μM. DMSO and KA were used as controls.\n5 dpf fish were incubated with KA 300 μM for 1 hour followed by a two-hour incubation with one of the piperlongumine derivatives at 1 nM to 100 μM. Animals were fixed and immunostained for the hair cell marker, otoferlin. Neuromast hair cells were counted under a fluorescence microscope. At least 3 neuromast of the rostral lateral line were inspected per fish, in a total of 6 fish per treatment. Results are presented as mean+/−SD. Control, KA only, PG only, PG+KA, derivatives that were no protective against excitotoxicity, derivatives that performed better than PG.\n5dpf fish were incubated with KA 300 μM for 1 hour followed by one of the PG derivatives at different concentrations for additional 2 hours. Animals were fixed and immunostained for otoferlin. Neuromast hair cells were quantified in at least 3 rostral neuromasts per fish in a total of 6 fish per treatment. Results are expressed as mean+/−SD. Statistical analysis: One-way ANOVA *P<0.05, **P<0.01, P<0.001 versus KA alone. These five Piperlongumine derivatives performed better than Piperlongumine at least one dose."}, "[2]": {"system": "zebrafish lateral line neuromast hair cells", "experiment": "Zebrafish lateral line neuromast hair cell counts after aminoglycoside (neomycin or gentamycin)", "type": "in vivo, Danio rerio", "conditions": "5 dpf larvae", "source_text": "Now referring to FIGS. 5A-C,(E)-1-(3-(3,4,5-trimethoxyphenyl)acryloyl)-S,6-dihydropyridin-2(1H)-one (Piperlongumine) protects from aminoglycoside induced hair cell loss in zebrafish lateral line neuromasts in vivo. Zebrafish lateral line neuromast HC counts are commonly used in vivo models for screening otoprotectants. Danio rerio experimental larvae were obtained by pair mating of adult fish maintained at Creighton University by standard methods approved by the Institutional Animal Care and Use Committee. Fish used were Tg(pou4f3:mGFP) expressing a membrane bound GFP in HCs. […] The lateral-line neuromasts of zebrafish are a valuable system for testing protectivity of compounds against aminoglycoside toxicity in vivo, as their HCs are considered homologous to those in the mammalian inner ear and are readily accessible to drugs. […]\nSubsequently, animals were transferred to E3 water for 5 hours and fixed in 4% paraformaldehyde (PFA) overnight. […] These two markers were used to detect and count neuromast HCs to reduce the chances of missing some of the HCs after the treatment since as it was previously noticed that incubation with the compounds can affect GFP expression more difficult to detect under a fluorescence microscope. […] Quantification was done by assessing three neuromasts in the same anatomic location of each animal (n=5). […]"}, "[3]": {"system": "mouse embryonic fibroblast (MEFs)", "experiment": "MTT viability of mouse embryonic fibroblasts exposed to aminoglycosides", "type": "cell-based", "conditions": "15 hours", "experimental": "(§1) MEFs were incubated for 15 hours with neomycin (100 μM) or gentamicin (8 μM) with or without Piperlongumine (0.1 nM-5 μM). Cell viability was assessed employing MTT (3-(4-,5-dimethylthiazol-2-yl)-2,5-diphenyltetrazolium bromide) viability kit test (Thermo Fisher). The data is plotted as mean+SD. Statistical testing was done with One-way ANOVA and Dunnett post-hoc test (*P<0.05, **P<0.01 compared to either Neo or GM, respectively).\nas §1, with “Now referring to FIG. 7 (E)-1-(3-(3,4,5-trimethoxyphenyl)acryloyl)-S,6-dihydropyridin-2(1H)-one protects mouse embryonic fibroblast (MEFs) against aminoglycosides. MEFs” for “MEFs”, “without(E)-1-(3-(3,4,5-trimethoxyphenyl)acryloyl)-S,6-dihydropyridin-2(1H)-one” for “without Piperlongumine”, “μM) at 0.1 nM, 0.5 nM, 1 nM, 5 nM, 10 nM, 50 nM, 100 nM, and 500 nM.” for “μM).”"}, "[4]": {"system": "C57BL/6 (Cdh23 corrected) mice", "experiment": "ABR thresholds in kanamycin exposed mice", "type": "in vivo, mouse", "conditions": "at 22.6 kHz; 40 mg/kg b.w. once a day for 17 days IP; kanamycin 700 mg/kg twice a day for 14 days; p=0.0408", "experimental": "(§2) C57BI6 (Cdh23 corrected) (6-7 weeks old) were exposed to vehicle+kanamycin (Veh+Kan) (700 mg/kg b.w. twice a day for 14 days) (shown as circles with four breaks); or (E)-1-(3-(3,4,5-trimethoxyphenyl)acryloyl)-S,6-dihydropyridin-2(1H)-one+kanamycin (PLM+Kan) with (E)-1-(3-(3,4,5-trimethoxyphenyl)acryloyl)-S,6-dihydropyridin-2(1H)-one (40 mg/kg b.w. once a day for 17 days) (shown as circle no breaks). Age match controls are shown (age, shown as circle with three breaks). Auditory brainstem response (ABR) thresholds were recorded for frequencies (4 kHz, 5.6 kHz, 8 kHz, 16 kHz, 22.6 kHz, 32 kHz, 45.2 kHz, and 64 kHz) before and after treatment protocol. […] Statistical analysis was done with repeated measures ANOVA between groups.\nNow referring to FIG. 8A, Piperlongumine protects from aminoglycoside toxicity in mice in vivo. 6-7-week-old C57BL/6 (Cdh23 corrected) were used, with a mix of males and females across experiments. […] Piperlongumine's protection against hearing impairment loss was assessed by measuring ABR threshold shifts in the mouse ear.\nAnimals were anesthetized with a mixture of ketamine/xylazine before ABR assessment. […] Evoked responses were amplified (20x), bandpass filtered (300-3,000 Hz) and average of 512 responses of 10 ms duration was recorded. […]"}, "[5]": {"system": "C57BL/6 (Cdh23 corrected) mice", "experiment": "General toxicity in mice over the 17-day treatment regimen", "type": "in vivo, mouse", "conditions": "40 mg/kg b.w. for 17 days, with and without kanamycin", "experimental": "as §2\nNow referring to FIG. 8A, Piperlongumine protects from aminoglycoside toxicity in mice in vivo. 6-7-week-old C57BL/6 (Cdh23 corrected) were used, with a mix of males and females across experiments. Procedures were approved by the IACUC committee of the Creighton University.) Mice were treated with Piperlongumine (40 mg/kg b.w., for 17 days, IP) with or without kanamycin treatment (700 mg/kg b.w. for 14 days twice a day, s.q.). Piperlongumine's protection against hearing impairment loss was assessed by measuring ABR threshold shifts in the mouse ear.\nAge-control group mice were administered saline. […] Data are presented as mean+SD, n=3-4/group."}}, "data": [{"smiles": "O=C(/C=C/c1ccco1)N1CCC1=O", "note": "[PG3]", "values": [{"measurement": "performance compared with Piperlongumine against kainic acid (KA) induced hair cell death", "setting": "[1]", "value": "better performance than Piperlongumine"}]}, {"smiles": "COc1cccc(/C=C/C(=O)N2CCCCC2=O)c1", "note": "[PG25]", "values": [{"measurement": "protection of neuromast hair cells from excitotoxic damage induced by kainic acid", "setting": "[1]; 300 μM KA 1 hour, then compound 2 hours at 0.001 μM, 0.1 μM, 10 μM, 100 μM", "value": "protects neuromast hair cells from excitotoxic damage"}, {"measurement": "performance compared with Piperlongumine against kainic acid (KA) induced hair cell death", "setting": "[1]", "value": "better performance than Piperlongumine"}]}, {"smiles": "O=C(/C=C/c1ccccc1)N1CCC1=O", "note": "[PG 18]", "values": [{"measurement": "performance compared with Piperlongumine against kainic acid (KA) induced hair cell death", "setting": "[1]", "value": "better performance than Piperlongumine"}]}, {"smiles": "O=C(/C=C/c1ccc2c(c1)OC(F)(F)O2)N1CCCCCC1=O", "note": "[PG 53]", "values": [{"measurement": "performance compared with Piperlongumine against kainic acid (KA) induced hair cell death", "setting": "[1]", "value": "better performance than Piperlongumine"}]}, {"smiles": "O=C(/C=C/c1ccc2c(c1)OC(F)(F)O2)N1CCCCC1=O", "note": "[PG 54]", "values": [{"measurement": "performance compared with Piperlongumine against kainic acid (KA) induced hair cell death", "setting": "[1]", "value": "better performance than Piperlongumine"}]}, {"smiles": "COc1cc(/C=C/C(=O)N2CCC=CC2=O)cc(OC)c1OC", "note": "[Piperlongumine, (E)-1-(3-(3,4,5-trimethoxyphenyl)acryloyl)-S,6-dihydropyridin-2(1H)-one]", "values": [{"measurement": "protection from gentamycin-induced hair cell death", "setting": "[2]; 1 hour pre-incubation then co-incubation with 100 μM gentamycin for 1 hour", "value": "protects zebrafish neuromasts from gentamycin-induced hair cell death"}, {"measurement": "protection from neomycin-induced hair cell death", "setting": "[2]; 1 hour pre-incubation then co-incubation with 200 μM Neomycin for 30 minutes", "value": "protects zebrafish neuromasts from neomycin-induced hair cell death"}, {"measurement": "protection of MEFs against gentamycin (cell viability, MTT)", "setting": "[3]; gentamicin 8 μM, observed at 0.1 nM to 1 nM", "value": 100, "unit": "%"}, {"measurement": "protection of MEFs against neomycin (cell viability, MTT)", "setting": "[3]; neomycin 100 μM, observed at 0.1 nM to 10 nM", "value": 100, "unit": "%"}, {"measurement": "protection of ABR threshold against kanamycin", "setting": "[4]", "value": "significant protection"}, {"measurement": "general toxicity", "setting": "[5]", "value": "not toxic"}]}]}
